Patent US6106858A, “Modulation of drug loading in multivescular liposomes” (SkyePharma, Inc., priority 1997, dated 2000)
“And” between values parts separate entries of the source, which are not always exact repeats. Identical values can stand only once. Like-named read-outs stand apart in the source and are kept apart here. Blank lines part the entries; values can stand above or below the compound they belong to.

What was measured:
[1] = Drug loading of multivesicular liposomes (MVL): drug concentration of suspension relative to lipocrit; type: physicochemical
[2] = Percent encapsulation (percent yield) of drug in final MVL suspension; type: physicochemical
[3] = cited from earlier work
[4] = Lipocrit of MVL suspension; type: physicochemical; conditions: 125 mL scale, first aqueous: 15 mg/mL, 20 mM ammonium citrate
Experimental: As used herein, "lipocrit," which is defined in analogy to hematocrit, means the ratio of the volume occupied by the liposomes to the total suspension volume multiplied by 100. [formula]
Thus, percent yield of drug was calculated as the ratio of the drug concentration in the final suspension times the volume of the final suspension to the drug concentration in the first aqueous solution times the volume of the first aqueous solution. Lipocrit was calculated, in analogy to hematocrit, as the percent ratio of the pellet volume to the suspension volume (see conditions below for obtaining the pellet volume).
To calculate the lipocrit about 50 μL of the multivesicular liposome suspension was taken up into a capillary tube, and end of the tube was sealed while ensuring that the suspension contained no air bubbles. The suspension was spun in a centrifuge at 600×g for 10 minutes to obtain a pellet layer and a supernatant layer. The percent ratio of the length of the tube occupied by the pellet to that occupied by the suspension gives the lipocrit.

[5] = Integrity of encapsulated IGF-I by SDS-PAGE and RP-HPLC / characterization of encapsulated protein; type: physicochemical
Excerpt: (§1) The physicochemical integrity of the encapsulated IGF-I was confirmed by SDS-PAGE assay using Novex NuPage gel as well as by RP-HPLC assay using a C18 symmetric column. The encapsulated protein was extracted using 75:25 IPA:2N Citric Acid. The bioactivity of the encapsulated IGF-I was confirmed by a mitogenic bioassay using MG-63 human osteosarcoma cell line and 3-(4,5-dimethylthiazol-2-yl)-2,5-diphenyltetrazolium bromide (MTT) stain according to the method of W. Lopaczynski et al., Regulatory Peptides, 48:207-216, 1993. The MG-63 cells were obtained from the American Type Culture Collection (ATCC# CRL 1427), and the dose dependent mitogenic response of quiescent MG-63 cells to added IGF-I was determined.

[6] = test system: MG-63 human osteosarcoma cell line; assay: Mitogenic bioassay of extracted IGF-I with MTT stain; type: cell-based; conditions: mitogenic response of quiescent MG-63 cells, versus unencapsulated standard
Excerpt: as §1

[7] = Percent free drug in MVL suspension; conditions: 125 mL scale, first aqueous: 15 mg/mL, 8.0 w/v % sucrose, 20 mM ammonium citrate, ~321 mOsm
Experimental: As used herein, "percent free drug" means the ratio of the amount of drug exterior to the liposomes in the final liposome suspension to the total amount of drug in the final suspension (the final product) multiplied by 100. [formula]
125 mL of first aqueous solution was mixed with 125 mL of the lipid component using a high-shear double-mixing vessel system to obtain the first emulsion. […] The aqueous and organic components were mixed at a speed of 8000 rpm for 30 minutes in the first emulsion vessel. […]
Percent free drug was calculated as the percent ratio of the amount of drug in the supernatant to the amount of drug in the final suspension. Percent free drug can also be calculated as the percent ratio of the drug concentration in the supernatant to that in the suspension, times (1-lipocrit) Drug loading, which measures the amount of drug encapsulated in each unit of the encapsulated volume, is approximately equal to and can be estimated (assuming low percent free drug) as the ratio of the drug concentration of the final liposome suspension to the lipocrit. […]
Using a reference absorbance standard established based on drug solutions of known concentration in the same dissolving solution, the concentrations of drug in the suspension and supernatant were calculated.

[8] = Solubility of IGF-I versus pH; type: physicochemical
Experimental: Further studies were conducted using in the first aqueous component concentrations of IGF-I ranging from 10 to 80 mg/mL, either with or without 100 mM HCl or 25 mM citric acid at constant pH. […] Studies have shown that up to about 300 mg/mL of IGF-I is soluble at a pH below 5.

[9] = prior-art multivesicular liposomes; cited from earlier work
[10] = prior-art multivesicular liposomes; cited from earlier work; remark: listed apart in the source

Compound: CC(C)C[C@H](NC(=O)[C@H](Cc1ccccc1)NC(=O)CNC(=O)CNC(=O)[C@@H](N)Cc1ccc(O)cc1)C(=O)O [Enkephalin, reference compound]
effect of osmolarity of first aqueous solution on drug loading [1]: decreasing of osmolarity resulting in increased drug loading
Drug Loading ([1]; first aqueous: 5 mg/mL, 0.0 w/v % sucrose, 25 mM citric acid, est. 35.5 mOsm): 50.8 mg/mL
Drug Loading ([1]; first aqueous: 5 mg/mL, 2.5 w/v % sucrose, 25 mM citric acid, est. 111.5 mOsm): 13.4 mg/mL
Drug Loading ([1]; first aqueous: 5 mg/mL, 5.0 w/v % sucrose, 25 mM citric acid, est. 191.5 mOsm): 6.4 mg/mL
% Yield [2]: 77.5% and 71.8% and 72.5%
effect of osmolarity of first aqueous solution on percent yield [2]: not significantly changed by a decrease in osmolarity

Drug Loading ([1]; first aqueous: 15 mg/mL, 4.0 w/v % sucrose, 100 mM phosphoric acid, est. 261.6 mOsm): 17.9 mg/mL
Drug Loading ([1]; first aqueous: 15 mg/mL, 6.0 w/v % sucrose, 100 mM phosphoric acid, est. 328.6 mOsm): 10.9 mg/mL
% Yield ([2]; MVL, first aqueous: 15 mg/mL, 4.0 w/v % sucrose, 100 mM phosphoric acid, est. 261.6 mOsm): 54.1%
% Yield ([2]; MVL, first aqueous: 15 mg/mL, 6.0 w/v % sucrose, 100 mM phosphoric acid, est. 328.6 mOsm): 56.2%
Compound: CCNC(=O)[C@@H]1CCCN1C(=O)[C@H](CCCNC(=N)N)NC(=O)[C@H](CC(C)C)NC(=O)[C@@H](CC(C)C)NC(=O)[C@H](Cc1ccc(O)cc1)NC(=O)[C@H](CO)NC(=O)[C@H](Cc1c[nH]c2ccccc12)NC(=O)[C@H](Cc1c[nH]cn1)NC(=O)[C@@H]1CCC(=O)N1 [Leuprolide, reference compound]
effect of osmolarity of first aqueous solution on drug loading [1]: decreasing of osmolarity resulting in increased drug loading
effect of osmolarity of first aqueous solution on percent yield ([2]; MVL): A similar percent yield was maintained across the range of osmolarities tested

Compound: OC[C@H]1O[C@@](CO)(O[C@H]2O[C@H](CO)[C@@H](O)[C@H](O)[C@H]2O)[C@@H](O)[C@@H]1O [sucrose]
Osmolarity for sucrose ([3]; 0.5 w/v %): 15 mOsm
Osmolarity for sucrose ([3]; 1.0 w/v %): 30 mOsm
Osmolarity for sucrose ([3]; 1.5 w/v %): 45 mOsm
Osmolarity for sucrose ([3]; 2.0 w/v %): 60 mOsm
Osmolarity for sucrose ([3]; 2.5 w/v %): 76 mOsm
Osmolarity for sucrose ([3]; 3.0 w/v %): 91 mOsm
Osmolarity for sucrose ([3]; 4.0 w/v %): 123 mOsm
Osmolarity for sucrose ([3]; 5.0 w/v %): 156 mOsm
Osmolarity for sucrose ([3]; 6.0 w/v %): 190 mOsm
Osmolarity for sucrose ([3]; 7.0 w/v %): 225 mOsm
Osmolarity for sucrose ([3]; 8.0 w/v %): 261 mOsm

Compound: IGF-I: insulin-like growth factor I (IGF-I), encapsulated in MVLs
% Lipocrit ([4]; 5.0 w/v % sucrose, ~216 mOsm): 36.7%
% Lipocrit ([4]; 8.0 w/v % sucrose, ~321 mOsm): 41.8%
physicochemical integrity of encapsulated IGF-I ([5]; SDS-PAGE and RP-HPLC, extracted with 75:25 IPA:2N citric acid): confirmed
degradation of encapsulated protein ([5]; Table 6A formulations (100 mM HCl)): showed some degradation
presence of IGF-I oligomers ([5]; absence of an acid buffer, Table 6B): increased presence of IGF-I oligomers in the absence of an acid buffer
bioactivity of extracted IGF-I [6]: approximately equivalent to that of an unencapsulated standard
% Free IGF-I [7]: 0.18%
solubility and bioavailability of encapsulated IGF-I versus pH ([8]; 10 to 80 mg/mL IGF-I, with or without 100 mM HCl or 25 mM citric acid): varied according to pH of the first aqueous component
solubility ([8]; pH below 5): about 300 mg/mL

Compound: cytosine arabinoside [Cytarabine]
encapsulation efficiency [9]: relatively low
Drug Loading ([1]; first aqueous: 40 mg/mL, 0.0 w/v % sucrose, 20 mM citric acid, est. 185.9 mOsm): 61.7 mg/mL
Drug Loading ([1]; first aqueous: 40 mg/mL, 2.0 w/v % sucrose, 20 mM citric acid, est. 245.9 mOsm): 45.2 mg/mL
Drug Loading ([1]; first aqueous: 40 mg/mL, 5.0 w/v % sucrose, 20 mM citric acid, est. 341.9 mOsm): 30.8 mg/mL
Drug Loading ([1]; first aqueous: 40 mg/mL, 8.0 w/v % sucrose, 20 mM citric acid, est. 446.9 mOsm): 21.0 mg/mL
release rate of encapsulated molecules in biological fluids [10]: faster than is therapeutically desirable
% Yield [2]: 57.1% and 62.6% and 77.3% and 69.6%
effect of osmolarity of first aqueous solution on percent yield [2]: remaining relatively constant
